PMC10139140, “Synthesis of Novel 2-(Cyclopentylamino)thiazol-4(5H)-one Derivatives with Potential Anticancer, Antioxidant, and 11β-HSD Inhibitory Activities” (International Journal of Molecular Sciences, 2023)

What was measured:
[1] = tested on: skin melanoma (SK-MEL-30); assay: MTS metabolic activity assay, SK-MEL-30 cells; assay type: cell-based; details: 72 h; for viability at 10 µM / viability at 20 µM / viability at 50 µM / viability at 100 µM / viability at 200 µM / viability at 300 µM / viability at 500 µM: Homo sapiens, read-out: Cell metabolic activity (MTS), % of untreated control; for viability at 10 µM: SK-MEL-30, 10 µM; for viability at 20 µM: SK-MEL-30, 20 µM; for viability at 50 µM: SK-MEL-30, 50 µM; for viability at 100 µM: SK-MEL-30, 100 µM; for viability at 200 µM: SK-MEL-30, 200 µM; for viability at 300 µM: SK-MEL-30, 300 µM; for viability at 500 µM: SK-MEL-30, 500 µM; for cell viability, decreases to: SK-MEL-30, higher concentrations, range given for the most effective substances together
Method in brief: (§1)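 Dose range applied for 72 h; MTS read-out at 590 and 620 nm, % of control.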

[2] = tested on: human colon carcinoma (Caco-2); assay: MTS metabolic activity assay, Caco-2 cells; assay type: cell-based; details: 72 h; for viability at 10 µM / viability at 20 µM / viability at 50 µM / viability at 100 µM / viability at 200 µM / viability at 300 µM / viability at 500 µM: Homo sapiens, read-out: Cell metabolic activity (MTS), % of untreated control; for viability at 10 µM: Caco-2, 10 µM; for viability at 20 µM: Caco-2, 20 µM; for viability at 50 µM: Caco-2, 50 µM; for viability at 100 µM: Caco-2, 100 µM; for viability at 200 µM: Caco-2, 200 µM; for viability at 300 µM: Caco-2, 300 µM; for viability at 500 µM: Caco-2, 500 µM
Method in brief: as §1

[3] = tested on: human breast carcinoma (MDA-MB-231); assay: MTS metabolic activity assay, MDA-MB-231 cells; assay type: cell-based; details: 72 h; for viability at 10 µM / viability at 20 µM / viability at 50 µM / viability at 100 µM / viability at 200 µM / viability at 300 µM / viability at 500 µM: Homo sapiens, read-out: Cell metabolic activity (MTS), % of untreated control; for viability at 10 µM: MDA-MB-231, 10 µM; for viability at 20 µM: MDA-MB-231, 20 µM; for viability at 50 µM: MDA-MB-231, 50 µM; for viability at 100 µM: MDA-MB-231, 100 µM; for viability at 200 µM: MDA-MB-231, 200 µM; for viability at 300 µM: MDA-MB-231, 300 µM; for viability at 500 µM: MDA-MB-231, 500 µM
Method in brief: as §1

glioma (U-118 MG) = assay: MTS metabolic activity assay, U-118 MG cells; assay type: cell-based; details: 72 h; for viability at 10 µM / viability at 20 µM / viability at 50 µM / viability at 100 µM / viability at 200 µM / viability at 300 µM / viability at 500 µM: Homo sapiens, U-118-MG, U118-MG, read-out: Cell metabolic activity (MTS), % of untreated control
Method in brief: as §1

11β-HSD1 = molecular target: T1, 11β-HSD1 (Homo sapiens, UniProt P28845); assay: Inhibition of 11β-HSD1 (cortisone to cortisol, human liver microsomes, cortisol ELISA); assay type: biochemical; details: for inhibition at 10 µM: 2.5 h, 37 °C
T1 construct: Human liver microsomes were used as a source of 11β-HSD1 enzyme; tissue XenoTech Lot No. 1410013; host or cells: pooled human liver microsomes, mixed gender
T1 sequence (P28845 whole entry): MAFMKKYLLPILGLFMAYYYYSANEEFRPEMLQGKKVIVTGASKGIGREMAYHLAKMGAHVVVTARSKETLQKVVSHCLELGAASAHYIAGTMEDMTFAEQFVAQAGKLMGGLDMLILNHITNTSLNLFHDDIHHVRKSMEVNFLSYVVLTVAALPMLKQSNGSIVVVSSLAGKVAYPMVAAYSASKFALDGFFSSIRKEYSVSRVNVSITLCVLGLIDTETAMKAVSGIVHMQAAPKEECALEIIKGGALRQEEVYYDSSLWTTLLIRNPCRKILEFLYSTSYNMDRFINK
Method in brief: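 Human liver microsomal conversion of cortisone to cortisol, incubated 2.5 h at 37 °C and stopped with 18β-glycyrrhetinic acid. Cortisol was quantified by ELISA against inhibitor-free controls.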

11β-HSD2 = molecular target: T2, 11β-HSD2 (Homo sapiens, UniProt P80365); assay: Inhibition of 11β-HSD2 (cortisol to cortisone, human microsomes, cortisol ELISA); assay type: biochemical; details: 2.5 h, 37 °C
T2 construct: Human liver microsomes were used as a source of 11β-HSD2 enzyme; tissue XenoTech Lot No. 1710160; host or cells: human kidney microsomes, mixed gender (method text says human liver microsomes)
T2 sequence (P80365 1-405): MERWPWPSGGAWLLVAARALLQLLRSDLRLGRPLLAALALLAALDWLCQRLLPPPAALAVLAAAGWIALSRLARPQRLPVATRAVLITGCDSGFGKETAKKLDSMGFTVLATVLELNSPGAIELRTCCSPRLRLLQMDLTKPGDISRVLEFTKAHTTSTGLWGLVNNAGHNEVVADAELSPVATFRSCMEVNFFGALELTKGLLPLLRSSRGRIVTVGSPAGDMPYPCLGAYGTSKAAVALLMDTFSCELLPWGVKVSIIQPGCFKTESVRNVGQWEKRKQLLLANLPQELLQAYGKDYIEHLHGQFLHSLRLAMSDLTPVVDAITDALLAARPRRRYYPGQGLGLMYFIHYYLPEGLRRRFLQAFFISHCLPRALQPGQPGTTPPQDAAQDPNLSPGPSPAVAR
Description: The resulting solution with a final volume of 100 µL was incubated for 2.5 h at 37 °C. […] The level of unreacted cortisol was measured by a commercially available ELISA kit.

[4] = tested on: human pancreatic carcinoma (PANC-1); assay: MTS metabolic activity assay, PANC-1 cells; assay type: cell-based; details: for viability at 10 µM / viability at 20 µM / viability at 50 µM / viability at 100 µM / viability at 200 µM / viability at 300 µM / viability at 500 µM: Homo sapiens, 72 h, read-out: Cell metabolic activity (MTS), % of untreated control; for viability at 10 µM: PANC-1, 10 µM; for viability at 20 µM: PANC-1, 20 µM; for viability at 50 µM: PANC-1, 50 µM; for viability at 100 µM: PANC-1, 100 µM; for viability at 200 µM: PANC-1, 200 µM; for viability at 300 µM: PANC-1, 300 µM; for viability at 500 µM: PANC-1, 500 µM; for highest increase in proliferation (cell metabolic activity): PANC-1, 72 h, range given for the named substances together
Method in brief: as §1

BJ cells = assay: MTS metabolic activity assay, BJ cells; assay type: cell-based; details: Homo sapiens, 72 h, read-out: Cell metabolic activity (MTS), % of untreated control
Method in brief: as §1

`O=C1N=C(NC2CCCC2)SC1c1ccccc1` (stereo not shown) [Compound 3f, 2-(cyclopentylamino)-5-phenylthiazol-4(5H)-one] was tested, and the viability at 10 µM [1] was 96.1%, the viability at 20 µM [1] was 98.2% and the viability at 50 µM [1] was 99.7%. For the same compound, the viability at 100 µM [1] was 100%, the viability at 200 µM [1] was 93.8% and the viability at 300 µM [1] was 73.2%. The viability at 500 µM [1] was 50%, the “cell viability, decreases to” value [1] was 20–65% and the viability at 10 µM [2] was 91.3%. It also gave a viability at 20 µM [2] of 90.4%, a viability at 50 µM [2] of 93.7% and a viability at 100 µM [2] of 87.4%. The viability at 200 µM [2] was 89.7%, the viability at 300 µM [2] was 87.1% and the viability at 500 µM [2] was 75.2%. For the same compound, the viability at 10 µM [3] was 96.2%, the viability at 20 µM [3] was 100% and the viability at 50 µM [3] was 95.3%. The viability at 100 µM [3] was 95.9%, the viability at 200 µM [3] was 87.8% and the viability at 300 µM [3] was 79.1%. The viability at 500 µM [3] was 78.2%, the viability at 10 µM (glioma (U-118 MG)) was 116% and the viability at 20 µM (glioma (U-118 MG)) was 114%. The viability at 50 µM (glioma (U-118 MG)) was 114%, the viability at 100 µM (glioma (U-118 MG)) was 115% and the viability at 200 µM (glioma (U-118 MG)) was 110%. The viability at 300 µM (glioma (U-118 MG)) was 106%, the viability at 500 µM (glioma (U-118 MG)) was 86.8% and the “highest increase in proliferation (cell metabolic activity)” value (from here on “highest increase in proliferation”) (glioma (U-118 MG); U-118 MG, range given for the named substances together) was 115 to 144%. The IC50 (11β-HSD1) was 1100 ± 80 nM, the inhibition at 10 µM (11β-HSD1) was 64.3 ± 5.07% and the inhibition at 10 µM (11β-HSD2) was 36.5 ± 3.07%. For the same compound, the viability at 10 µM [4] was 110%, the viability at 20 µM [4] was 102% and the viability at 50 µM [4] was 117%. For the same compound, the viability at 100 µM [4] was 117%, the viability at 200 µM [4] was 137% and the viability at 300 µM [4] was 141%. For the same compound, the viability at 500 µM [4] was 141%, the “highest increase in proliferation” value [4] was 115 to 144% and the viability at 10 µM (BJ cells) was 107%. The viability at 20 µM (BJ cells) was 102%, the viability at 50 µM (BJ cells) was 102% and the viability at 100 µM (BJ cells) was 106%. The viability at 200 µM (BJ cells) was 105%, the viability at 300 µM (BJ cells) was 106% and the viability at 500 µM (BJ cells) was 96.8%.
With `O=C1N=C(NC2CCCC2)SC1c1ccc(Br)cc1` (stereo not shown) [Compound 3g, 2-(cyclopentylamino)-5-(4-bromophenyl)thiazol-4(5H)-one] the viability at 10 µM [1] was 95.4%, the viability at 20 µM [1] was 97.5% and the viability at 50 µM [1] was 98.3%. It also gave a viability at 100 µM [1] of 93.1%, a viability at 200 µM [1] of 71.5% and a viability at 300 µM [1] of 29.7%. For the same compound, the viability at 500 µM [1] was 25.2%, the “cell viability, decreases to” value [1] was 20–65% and the “cell viability, decreases to” value ([2]; Caco-2, higher concentrations, range given for the most effective substances together) was 20–65%. It also gave a viability at 10 µM [2] of 91.9%, a viability at 20 µM [2] of 88.8% and a viability at 50 µM [2] of 87.3%. For the same compound, the viability at 100 µM [2] was 80.7%, the viability at 200 µM [2] was 56.3% and the viability at 300 µM [2] was 30.1%. It also gave a viability at 500 µM [2] of 30.9%, a viability at 10 µM [3] of 92.9% and a viability at 20 µM [3] of 93.6%. The viability at 50 µM [3] was 84.6%, the viability at 100 µM [3] was 82% and the viability at 200 µM [3] was 61.4%. The viability at 300 µM [3] was 43.9%, the viability at 500 µM [3] was 38% and the “cell viability, decreases to” value ([3]; MDA-MB-231, higher concentrations, range given for the most effective substances together) was 20–65%. For the same compound, the viability at 10 µM (glioma (U-118 MG)) was 114%, the viability at 20 µM (glioma (U-118 MG)) was 110% and the viability at 50 µM (glioma (U-118 MG)) was 105%. The viability at 100 µM (glioma (U-118 MG)) was 104%, the viability at 200 µM (glioma (U-118 MG)) was 87.3% and the viability at 300 µM (glioma (U-118 MG)) was 40.6%. For the same compound, the viability at 500 µM (glioma (U-118 MG)) was 32.3%, the IC50 (11β-HSD1) was 180 ± 30 nM and the inhibition at 10 µM (11β-HSD1) was 87 ± 2.17%. For the same compound, the inhibition at 10 µM (11β-HSD2) was 38.6 ± 1.39%, the viability at 10 µM [4] was 116% and the viability at 20 µM [4] was 122%. The viability at 50 µM [4] was 145%, the viability at 100 µM [4] was 139% and the viability at 200 µM [4] was 94.1%. For the same compound, the viability at 300 µM [4] was 57.9%, the viability at 500 µM [4] was 57.2% and the “highest increase in proliferation” value [4] was 115 to 144%. The viability at 10 µM (BJ cells) was 99.7%, the viability at 20 µM (BJ cells) was 97.8% and the viability at 50 µM (BJ cells) was 90.8%. The viability at 100 µM (BJ cells) was 88.1%, the viability at 200 µM (BJ cells) was 84.2% and the viability at 300 µM (BJ cells) was 57.3%. For the same compound, the viability at 500 µM (BJ cells) was 55.4%.
